Laboratory results: ChEMBL document CHEMBL1154395, “Modulations of the amide function of the preferential dopamine D3 agonist (R,R)-S32504: improvements of affinity and selectivity for D3 versus D2 receptors” (Bioorg Med Chem Lett, 2009)

Legend:
D(2) dopamine receptor = D(2) dopamine receptor (Homo sapiens, UniProt P14416); assay: Displacement of [3H]spiperone form human cloned dopamine D2L receptor expressed in CHO cells; type: cell-based
Homo sapiens = organism: Homo sapiens; assay: Selectivity ratio of Ki for human dopamine D2 receptor to Ki for human dopamine D3 receptor
D(3) dopamine receptor [1] = molecular target: T1, D(3) dopamine receptor (Homo sapiens, UniProt P35462); assay: Displacement of [3H]spiperone form human cloned dopamine D3 receptor expressed in CHO cells; type: cell-based
D(3) dopamine receptor [2] = molecular target: T1, D(3) dopamine receptor; assay: Activation of human dopamine D3 receptor expressed in CHO cells assessed as [35S]GTPgammaS binding by scintillation proximity assay; type: functional, cell-based

T1 sequence (P35462 whole entry): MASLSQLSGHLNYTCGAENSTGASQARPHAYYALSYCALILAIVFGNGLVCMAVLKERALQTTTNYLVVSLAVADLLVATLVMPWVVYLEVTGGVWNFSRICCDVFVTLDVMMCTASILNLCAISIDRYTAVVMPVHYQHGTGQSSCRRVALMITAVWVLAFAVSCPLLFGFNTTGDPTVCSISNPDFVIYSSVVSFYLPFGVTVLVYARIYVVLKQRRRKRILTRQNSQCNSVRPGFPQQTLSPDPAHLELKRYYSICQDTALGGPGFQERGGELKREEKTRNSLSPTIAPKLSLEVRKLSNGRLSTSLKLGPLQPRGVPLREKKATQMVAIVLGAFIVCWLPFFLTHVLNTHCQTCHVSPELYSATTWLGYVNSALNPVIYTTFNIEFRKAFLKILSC
Sequence of D(2) dopamine receptor (P14416 whole entry): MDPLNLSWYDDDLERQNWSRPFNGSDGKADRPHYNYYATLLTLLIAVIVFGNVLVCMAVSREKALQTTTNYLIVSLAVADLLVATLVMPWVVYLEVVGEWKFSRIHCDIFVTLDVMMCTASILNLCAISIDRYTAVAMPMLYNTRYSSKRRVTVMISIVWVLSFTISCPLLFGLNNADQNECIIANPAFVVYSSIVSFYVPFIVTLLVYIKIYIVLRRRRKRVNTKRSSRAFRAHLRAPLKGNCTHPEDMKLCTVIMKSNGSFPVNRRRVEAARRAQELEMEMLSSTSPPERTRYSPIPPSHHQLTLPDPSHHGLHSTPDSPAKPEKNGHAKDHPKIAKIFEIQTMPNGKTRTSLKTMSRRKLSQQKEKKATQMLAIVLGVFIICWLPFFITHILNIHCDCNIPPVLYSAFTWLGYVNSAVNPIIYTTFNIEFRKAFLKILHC

SMILES | Ki (D(2) dopamine receptor) [µM] | Ratio Ki (Homo sapiens) | Ki (D(3) dopamine receptor [1]) [µM] | EC50 (D(3) dopamine receptor [2]) [µM]
CCCN(CCC)CCc1cccc2c1CC(=O)N2 [ROPINIROLE] | 0.692 |  |  | 
CCCN1CCO[C@@H]2c3cc(C#N)ccc3CC[C@H]21 | 0.794 | 20 | 0.0398 | 
CCCN1CCO[C@@H]2c3cc(C(=O)NCc4ccc(OC)cc4)ccc3CC[C@H]21 | 3.39 |  | > 10 | 
CCCN1CCO[C@@H]2c3cc4c(cc3CC[C@H]21)CN(C)C4=O | > 10 |  | 2.19 | 
CCCN1CCO[C@@H]2c3cc(C(=O)Nc4ccc(OC)cc4)ccc3CC[C@H]21 | > 10 |  | 2.75 | 
CCCN1CCO[C@@H]2c3cc4c(cc3CC[C@H]21)COC4=O | 2.04 |  |  | 
CCCN1CCO[C@@H]2c3cc4c(cc3CC[C@H]21)CCOC4=O | 1.48 | 12.5 | 0.12 | 
CCCN1CCO[C@@H]2c3cc(-c4nnn[nH]4)ccc3CC[C@H]21 | > 10 |  | > 10 | 
CCCN1CCO[C@@H]2c3cc4c(cc3CC[C@H]21)CCNC4=O | 0.776 |  |  | 
CCCN1CCO[C@@H]2c3cc4c(=O)[nH]ccc4cc3CC[C@H]21 | 1.2 |  |  | 

Next, values leading:

Ki (D(2) dopamine receptor) [µM] | Ratio Ki (Homo sapiens) | Ki (D(3) dopamine receptor [1]) [µM] | EC50 (D(3) dopamine receptor [2]) [µM] | SMILES
3.09 | 32 | 0.0955 |  | CCCN1CCO[C@@H]2c3cc(C(C)=O)ccc3CC[C@H]21
0.759 | 40 | 0.0195 |  | CCCN1CCOC2c3cc(C(N)=O)ccc3CCC21 (racemic)
4.57 |  | > 10 |  | CCCCNC(=O)c1ccc2c(c1)[C@H]1OCCN(CCC)[C@@H]1CC2
1.86 |  | > 10 |  | CCCN1CCO[C@@H]2c3cc(C(=O)N(C)C)ccc3CC[C@H]21
> 1 |  | > 10 |  | CCCN1CCO[C@@H]2c3cc(C(=O)OC)ccc3CC[C@H]21
 |  | 2.63 |  | CCCN1CCO[C@@H]2c3cc(C(=O)OCC)ccc3CC[C@H]21
> 10 |  | 2.45 |  | CCCN1CCO[C@H]2c3cc(C(N)=O)ccc3CC[C@@H]21
> 10 |  | 3.31 |  | CCCN1CCO[C@@H]2c3cc(C(=O)O)ccc3CC[C@H]21
7.94 |  | > 10 |  | CCCN1CCO[C@@H]2c3cc(C(=O)NC)ccc3CC[C@H]21
1.2 | 80 | 0.0148 | 0.00229 | CCCN1CCO[C@@H]2c3cc(C(N)=O)ccc3CC[C@H]21
